# Source: patent US12351570B2 (MERCK PATENT GMBH, priority 2018, dated 2025)
# pIC50: −log10 of the molar value.
# Test system: MDA-MB-231 cells
# Test: Extracellular lactate production inhibition after 4 h, MDA-MB-231
# Conditions: Homo sapiens, MDA-MB-231
row,Compound,pIC50
1,"COc1cc(C#Cc2ccccc2NS(=O)(=O)c2ccc(OC)c3cccnc23)cnc1C(=O)O [Compound 170, 3-methoxy-5-{2-[2-(5-methoxyquinoline-8-sulfonamido)phenyl]ethynyl}pyridine-2-carboxylic acid]",4.00 to 6.00
2,"COCC(=O)Nc1ccc(C#Cc2ccc(C(=O)O)nc2)c(NS(=O)(=O)c2ccc(OC)c3cccnc23)c1 [Compound 173, 5-{2-[4-(2-methoxyacetamido)-2-(5-methoxyquinoline-8-sulfonamido)phenyl]ethynyl}pyridine-2-carboxylic acid]",4.00 to 6.00
3,"CC(C)COc1ccc(-c2ccc(S(=O)(=O)Nc3ccccc3C#Cc3ccc(C(=O)O)nc3)cc2)cc1 [Compound 174, 5-(2-{2-[4′-(2-methylpropoxy)-[1,1′-biphenyl]-4-sulfonamido]phenyl}-ethynyl)pyridine-2-carboxylic acid]",4.00 to 6.00
4,"COc1ccc(S(=O)(=O)N(C)c2ccccc2C#Cc2ccc(C(=O)O)nc2)c2ncccc12 [Compound 175, 5-{2-[2-(N-methyl5-methoxyquinoline-8-sulfonamido)phenyl]ethynyl}pyridine-2-carboxylic acid]",4.00 to 6.00
5,"O=C(O)c1ccc(C#Cc2ccccc2NS(=O)(=O)c2ccc(C3=CCCCC3)cc2)cn1 [Compound 177, 5-(2-{2-[4-(cyclohex-1-en-1-yl)benzenesulfonamido]phenyl}-ethynyl)pyridine-2-carboxylic acid]",6.00 to 7.00
6,"O=CN(Cc1cccc2cccnc12)c1ccccc1C#Cc1ccc(C(=O)O)nc1 [Compound 178, 5-[2-(2-{N-[(quinolin-8-yl)methyl]formamido}phenyl)ethynyl] pyridine-2-carboxylic acid]",6.00 to 7.00
7,"COc1ccccc1-c1cccc(CN(C=O)c2ccccc2C#Cc2ccc(C(=O)O)nc2)c1 [Compound 179, 5-(2-{2-[N-({2′-methoxy-[1,1′-biphenyl]-3-yl}methyl)formamido]phenyl}ethynyl) pyridine-2-carboxylic acid]",6.00 to 7.00
8,"O=CN(Cc1cccc(-c2ccccc2)c1)c1ccccc1C#Cc1ccc(C(=O)O)nc1 [Compound 181, 5-(2-{2-[N-({[1,1′-biphenyl]-3-yl}methyl)formamido]phenyl}-ethynyl)pyridine-2-carboxylic acid]",6.00 to 7.00
9,"COc1ccc(S(=O)(=O)Nc2cc(Br)ccc2C#Cc2ccc(C(=O)O)nc2)c2ncccc12 [Compound 182, 5-{2-[4-bromo-2-(5-methoxyquinoline-8-sulfonamido)phenyl]ethynyl}pyridine-2-carboxylic acid]",6.00 to 7.00
10,"COc1ccc(S(=O)(=O)Nc2cc(C(=O)NCCOCc3ccccc3)ccc2C#Cc2ccc(C(=O)O)nc2)c2ncccc12 [Compound 184, 5-[2-(4-{[2-(benzyloxy)ethyl]carbamoyl}-2-(5-methoxyquinoline-8-sulfonamido)-phenyl)ethynyl]pyridine-2-carboxylic acid]",4.00 to 6.00
11,"Cc1ccc2cccnc2c1S(=O)(=O)Nc1cc(Br)ccc1C#Cc1ccc(C(=O)O)nc1 [Compound 186, 5-{2-[4-bromo-2-(7-methylquinoline-8-sulfonamido)phenyl]ethynyl}pyridine-2-carboxylic acid]",6.00 to 7.00
12,"Cc1ccc2cccnc2c1S(=O)(=O)Nc1ccccc1C#Cc1cnc(C(=O)O)cc1N(C)C [Compound 187, 4-(dimethylamino)-5-{2-[2-(7-methylquinoline-8-sulfonamido)phenyl]-ethynyl}pyridine-2-carboxylic acid]",6.00 to 7.00

# Second part, the compound after the results:
row,pIC50,Compound
1,7.00 to 8.00,"O=C(O)c1ccc(C#Cc2ccccc2NS(=O)(=O)N2CCC[C@H]3CCCC[C@@H]32)cn1 [Compound 162, 5-[2-(2-{[(4aR,8aS)-decahydroquinoline-1-sulfonyl]amino}phenyl)ethynyl]pyridine-2-carboxylic acid]"
2,6.00 to 7.00,"Cc1ccc2cccnc2c1S(=O)(=O)Nc1ccccc1C#Cc1cnc(C(=O)O)c(N(C)C)c1 [Compound 163, 3-(dimethylamino)-5-{2-[2-(7-methylquinoline-8-sulfonamido)-phenyl]ethynyl}pyridine-2-carboxylic acid]"
3,8.00 to 9.00,"COc1cc(C(=O)O)ncc1C#Cc1ccccc1NS(=O)(=O)c1c(C)ccc2cccnc12 [Compound 164, 4-methoxy-5-{2-[2-(7-methylquinoline-8-sulfonamido)phenyl]ethynyl}pyridine-2-carboxylic acid]"
4,7.00 to 8.00,"CCOC(=O)c1ccc(C#Cc2ccccc2NS(=O)(=O)c2ccc(OC)c3cccnc23)cn1 [Compound 165, ethyl 5-{2-[2-(5-methoxyquinoline-8-sulfonamido)phenyl]ethynyl}pyridine-2-carboxylate]"
5,7.00 to 8.00,"CCCOC(=O)c1ccc(C#Cc2ccccc2NS(=O)(=O)c2ccc(OC)c3cccnc23)cn1 [Compound 166, propyl 5-{2-[2-(5-methoxyquinoline-8-sulfonamido)phenyl]ethynyl}pyridine-2-carboxylate]"
6,7.00 to 8.00,"COc1ccc(S(=O)(=O)Nc2ccccc2C#Cc2ccc(C(=O)OC(C)C)nc2)c2ncccc12 [Compound 167, propan-2-yl 5-{2-[2-(5-methoxyquinoline-8-sulfonamido)phenyl]ethynyl}pyridine-2-carboxylate]"
7,7.00 to 8.00,"CCCCOC(=O)c1ccc(C#Cc2ccccc2NS(=O)(=O)c2ccc(OC)c3cccnc23)cn1 [Compound 168, butyl 5-{2-[2-(5-methoxyquinoline-8-sulfonamido)phenyl]ethynyl}pyridine-2-carboxylate]"
8,7.00 to 8.00,"COc1cc(C(=O)O)ncc1C#Cc1ccccc1NS(=O)(=O)c1ccc(OC)c2cccnc12 [Compound 169, 4-methoxy-5-{2-[2-(5-methoxyquinoline-8-sulfonamido)phenyl]ethynyl}pyridine-2-carboxylic acid]"
9,6.00 to 7.00,"COc1cc(C#Cc2ccccc2NS(=O)(=O)c2c(C)ccc3cccnc23)cnc1C(=O)O [Compound 171, 3-methoxy-5-{2-[2-(7-methylquinoline-8-sulfonamido)phenyl]ethynyl}pyridine-2-carboxylic acid]"
10,7.00 to 8.00,"COc1ccc(S(=O)(=O)Nc2ccccc2C#Cc2ccc(C(=O)OCc3ccccc3)nc2)c2ncccc12 [Compound 172, benzyl 5-{2-[2-(5-methoxyquinoline-8-sulfonamido)phenyl]ethynyl}pyridine-2-carboxylate]"
11,7.00 to 8.00,"CCOc1cc(C(=O)O)ncc1C#Cc1ccccc1NS(=O)(=O)c1ccc(OC)c2cccnc12 [Compound 176, 4-ethoxy-5-{2-[2-(5-methoxyquinoline-8-sulfonamido)phenyl]ethynyl}pyridine-2-carboxylic acid]"
12,7.00 to 8.00,"CCOc1cc(C(=O)O)ncc1C#Cc1ccccc1NS(=O)(=O)c1c(C)ccc2cccnc12 [Compound 180, 4-ethoxy-5-{2-[2-(7-methylquinoline-8-sulfonamido)phenyl]ethynyl}pyridine-2-carboxylic acid]"
13,7.00 to 8.00,"O=CN(Cc1ccc(-c2ccccc2)cc1)c1ccccc1C#Cc1ccc(C(=O)O)nc1 [Compound 183, 5-(2-{2-[N-({[1,1′-biphenyl]-4-yl}methyl)formamido]phenyl}-ethynyl)pyridine-2-carboxylic acid]"
14,7.00 to 8.00,"COc1ccc(S(=O)(=O)Nc2ccc(F)cc2C#Cc2ccc(C(=O)O)nc2)c2ncccc12 [Compound 185, 5-{2-[5-fluoro-2-(5-methoxyquinoline-8-sulfonamido)phenyl]ethynyl}pyridine-2-carboxylic acid]"
